From BigSolDB 2.1

O=C(O)c1ccc(C(=O)O)cc1
solubility (mole fraction)
Conditions | 303.2 K | 313.2 K | 323.2 K | 333.2 K | 343.2 K | 353.2 K | 363.2 K
in DMAc | 0.016 | 0.0211 | 0.0269 | 0.0331 | 0.0385 | 0.0452 | 0.0524
in NMP | 0.0133 | 0.0155 | 0.0188 | 0.0216 | 0.0256 | 0.0287 | 0.0328
